In patent publication US5041542A, “Substituted pyrimido[5,4-d]pyrimidine nucleosides” (Nucleic Acid Research Institute, priority 1988, dated 1991):
In brackets after ≈: the same amount, converted by molar mass. Where two headings read alike, the source gives them in different places.

Tests used:
[1] = test system: de novo purine biosynthesis in WI-L2 cells; test: Inhibition of de novo purine biosynthesis ([14C]formate incorporation); format: cell-based, human; conditions: for activity at 50 µM: pre-incubation 8 h
Experimental: Compounds of the invention were also tested for certain biochemical properties. Compounds of the invention were studied for their effect on de novo purine biosynthesis by observing inhibition of incorporation of [^14 C]formate into the acid-soluble fraction of WI-L2 cells (see Table 3). […] However, 8 and 14 (100 μM) were not cytotoxic to WI-L2 cells deficient in adenosine kinase activity.
A normal lymphoblast phenotype B cell line, WI-L2 was used. The enzyme-deficient cell lines used in vitro are: HPRT-, a hypoxanthine-guanine phosphorbosyl transferase (EC 2.4.2.8)deficient line and AK-, an adenosine kinase (EC 2.7.1.20)deficient line. Cells were cultured in RPMI 1640 medium containing 5% dialyzed fetal bovine serum, 20 mM Na HEPES, pH 7.5 and 2 mM glutamine and maintained in log phase growth between 0.5 and 12×10^5 cells/mL. The mutant cell lines were periodically reselected by treatment with 6-thioguanine (HPRT-) or tubercidin (AK-).
(§1) . Inhibition of de novo purine biosynthesis: WI-L2 or adenosine kinase-deficient cells were preincubated at 37° C. with drug for various time periods prior to labeling with [^14 C]formate. Enzyme Assays: Adenosine kinase inhibition studies were accomplished by the filter binding assay method. Inhibition studies were done at 37° C. with an assay mixture containing 4 mM ATP, 1.5 mM MgCl2, 5 or 10 μM [8-^14 C] adenosine (50 mCi/mmol) and 100 mM Tris-maleate, pH 5.5. To prevent the enzymatic breakdown of adenosine, erythro-9-(2-hydroxy-3-nonyl)adenine (EHNA) was added to the cell-free WI-L2 lysate to give 5 μM final assay concentration. The assay was started by the addition of protein. The amount of enzyme, time of assay and sampling volume were adjusted to give acceptable conversion of [8-^14 C] adenosine to [8-^14 C]AMP. Each DE-81 filter was spotted with a constant sampling volume and immersed in H 2 O (4 L) to terminate the reaction. Filters were washed three times with H2 O (4 L) and once with EtOH (100 mL). Dry filters were placed in scintillation vials and radioactivity was counted with 10 mL toluene-based scintillation cocktail.
De novo purine biosynthesis was measured by the incorporation of ^14 C-formate into cellular purine nucleotides or excreted purines after pre-incubation with compound.

[2] = Anomerization in aqueous solution (reverse-phase HPLC); format: physicochemical
Experimental: This would be expected where the rate of anomerization is slow compared to the rate of deamination.
The compounds of the invention are capable of crossing the cell membrane, and activated to the 5'-phosphate, thus causing the inhibition of the de novo purine biosynthesis.
as §1, with “HPLC Analysis: Sample components were separated with an LKB model 2150 gradient HPLC system at ambient temperature on an Altex Ultrashere-ODS reverse phase column (Beckman) developed with a linear gradient of buffer A (10 mM KPO4 ', pH 3.83) to 20% component B (60% aqueous CH3 CN) at a combined flow rate of 1.0 mL/min over 15 min. Ultraviolet (UV) absorbance was monitored with an LKB model 2140 diode array detector. Inhibition of” for “. Inhibition of”

[3] = test system: pyrimidine (CTP + UTP) and purine (ATP + GTP) nucleoside triphosphates; test: 14C-bicarbonate incorporation into acid soluble pyrimidine and purine nucleoside triphosphates; format: cell-based
Text: Comparative effect of compounds on ^14 C-bicarbonate
incorporation into acid soluble pyrimidine (PyrTP,
CTP + UTP) and purine (PurTP, ATP + GTP) nucleoside

[4] = test system: herpes simplex virus type 2 (MS strain); test: In vitro antiviral activity, herpes simplex virus type 2 (virus rating); format: cell-based; conditions: Vero cells; VR >1.0 marked, 0.5 to 0.9 moderate, <0.5 weak or no activity
[5] = test system: vaccinia virus (Elstree strain); format: cell-based; conditions: HeLa cells; VR >1.0 marked, 0.5 to 0.9 moderate, <0.5 weak or no activity
[6] = test system: parainfluenza 3 (C243 strain); test: In vitro antiviral activity, parainfluenza 3 (virus rating); format: cell-based; conditions: Vero cells; VR >1.0 marked, 0.5 to 0.9 moderate, <0.5 weak or no activity
[7] = test system: Herpes 2, parainfluenza 3 and Vaccinia; format: cell-based; conditions: tested in parallel with ARPP (8)
L1210 cells = test: In vitro cytotoxicity, L1210; format: cell-based, murine; conditions: Mus musculus, L1210, 72 h; 3 days, 37° C., MTT; read-out: Antitumor (ID50) L1210
Experimental: (§2) ^b (ID50) inhibitory dose is the μM concentration of the
(§3) In vitro cytotoxicity analysis was performed by using the following cell lines: L1210 (a murine leukemia), WI-L2 (a human B-lymphoblast), and LoVo/L (a human colon carcinoma). Cells were grown in RPMI 1640 medium supplemented with 10% fetal bovine serum, 20 mM HEPES, pH 7.4, and 2 mM glutamine. The cytotoxicity determinations were carried out in 96-well microtiter dishes containing a starting number of 5-10×10^3 cells per well and 0.1-100 μM concentrations of the compounds in triplicate wells. L1210 and WI-L2 were incubated with the compounds at 37° C. for 3 days, while Lovo/L was incubated for 5 days. After this time period, 25 μL of 4 mg/mL 3-(4,5-dimethylthiazol-2-yl)-2,5-diphenyltetrazolium bromide was added to each well and incubation was continued for 2 to 5 h. The formazan product was dissolved in isopropanol containing 0.04M HCl and the absorbance was determined with a microtiter plate reader. The absorbance was proportional to the number of cells.

WI-L2 cells = test: In vitro cytotoxicity, WI-L2; format: cell-based; conditions: Homo sapiens, WIL2, 72 h; 3 days, 37° C., MTT; read-out: Antitumor (ID50) WI-L2
Experimental: as §2, §3

LoVo/L cells = test: In vitro cytotoxicity, LoVo/L; format: cell-based; conditions: Homo sapiens, 120 h, 5 days, 37° C., MTT, read-out: Antitumor (ID50) LoVo/L
Experimental: as §2, §3

L1210 = test: In vivo antitumor activity against L1210 in BDF1 mice; conditions: qd; for T/C: day 1, at maximum soluble dosage
Experimental: Compounds 8, 11, 14 and 17 were comparatively evaluated in vivo for efficacy against L1210 in BDF1 mice.
Mice were inoculated i.p. with 1×10^6 L1210 cells 24 hr before qd, day 1, i.p. drug delivery. Drugs were solubilized in water and delivered at the rate of 0.01 ml/g mouse weight. Then control mice/drug were injected i.p. with equivalent volumes of a 0.9% solution of NaCl, the means and standard deviations reflecting the postinoculation life spans of these mice ranged from 6.30±0.48 to 6.60±0.97 days.

[8] = delivered at 0.01 ml/g mouse weight
physchem = conditions: water
[9] = Lethal toxicity in treated mice; conditions: i.p., maximum soluble dosage
[10] = Homo sapiens, WIL2, cell, read-out: de novo purine biosynthesis, % of control, cell, 50 μM
[11] = Homo sapiens, WIL2, media (excreted purines), read-out: de novo purine biosynthesis, % of control, media, 50 μM
[12] = read-out: PurTP, % control, 50.0 μM
[13] = read-out: PydTP, % control, 50.0 μM

Compound | activity at 50 µM [1, 10] [%] | activity at 50 µM [1, 11] [%] | PurTP, 50.0 μM [3] [cpm/10^6 cells] | PyrTP, 50.0 μM [3] [cpm/10^6 cells] | CAA (carbamyl aspartate), 50.0 μM ([3]; zero = undetectable) [cpm/10^6 cells] | activity at 50 µM [3, 12] [%] | activity at 50 µM [3, 13] [%] | Antiviral (VR) HSV2 [4] [VR] | Antiviral (VR) VV [5] [VR] | Antiviral (VR) PI3 [6] [VR] | Antiviral activity in cell culture [7] | IC50 (L1210 cells) [nM] | IC50 (WI-L2 cells) [nM] | IC50 (LoVo/L cells) [µM] | T/C (L1210) | Maximum watersoluble dosage [8] [mg/kg/inj.] | solubility (physchem) [µg/mL] | other results
O=c1[nH]cnc2c(N[C@@H]3O[C@H](CO)[C@@H](O)[C@H]3O)ncnc12 [Compound 21, 8-(β-D-Ribofuranosylamino)pyrimido[5,4-d]pyrimidin-4(3H)-one] | 98.2 | 106 | 54484 | 15691 | 0 | 91.5 | 72.3 | – | – | – | – | – | – | – | – | – | – | anomeric equilibration in solution [2]: equilibrated from pure β-anomer into a mixture of α- and β-anomers
COc1ncnc2c(N[C@H]3O[C@H](CO)[C@@H](O)[C@H]3O)ncnc12 [Compound 17, 4-Methoxy-8-(α-D-ribofuranosylamino)pyrimido[5,4-d]pyrimidine] | – | – | – | – | – | – | – | 0.1 | 0.9 | 0.7 | antiviral activity | 2900 | 2500 | 18.7 | 116 | 37 | 3700 (≈ 12 mM) | Postinoculation Lifespan (% T/C), 37 mg/kg/inj. (L1210; 37 mg/kg/inj. i.p., day 1): 116 % T/C; purine de novo assay, short term ([1]; 4 h): inactive; activity at 25 µM ([1]; Homo sapiens, WIL2, cell, 25 μM, pre-incubation 4 h, read-out: de novo purine biosynthesis, % of control, cell, 25 μM): 98.2%; purine de novo assay, longer incubation times ([1]; separate assays, longer incubation times): demonstrated the inhibitory activity
Nc1nc(N[C@@H]2O[C@H](CO)[C@@H](O)[C@H]2O)c2ncnc(N)c2n1 [Compound 35, 4,6-Diamino-8-(β -D-ribofuranosylamino)pyrimido[5,4-d]pyrimidine] | 91.2 | 89.8 | 58130 | 15267 | 0 | 97.7 | 70.4 | – | – | – | – | – | – | – | – | – | – | –
Nc1ncnc2c(N[C@H]3O[C@H](CO)[C@@H](O)[C@H]3O)ncnc12 [Compound 11, 4-Amino-8-(α-D-ribofuranosylamino)pyrimido[5,4-d]pyrimidine] | – | – | – | – | – | – | – | 0.2 | 1.0 | 1.4 | antiviral activity | 380 | 250 | 1 | 138 | 22 | 2200 (≈ 7.48 mM) | Postinoculation Lifespan (% T/C), 22 mg/kg/inj. (L1210; 22 mg/kg/inj. i.p., day 1): 138 % T/C; lethal toxicity at maximum soluble dosage [9]: Neither drug was lethally toxic at its maximum soluble dosage
Nc1ncnc2c(N[C@@H]3O[C@H](CO)[C@@H](O)[C@H]3O)nc(Cl)nc12 [Compound 37, 4-Amino-6-chloro-8-(β-D-ribofuranosylamino)pyrimido[5,4-d]pyrimidine] | 16.4 | 43.4 | – | – | – | – | – | – | – | – | – | – | – | – | – | – | – | PurTP, 15.0 μM ([3]; 15.0 μM): 39833 cpm/10^6 cells; PyrTP, 15.0 μM ([3]; 15.0 μM): 13454 cpm/10^6 cells; CAA (carbamyl aspartate), 15.0 μM ([3]; 15.0 μM, zero = undetectable): 0 cpm/10^6 cells; activity at 15 µM ([3]; read-out: PurTP, % control, 15.0 μM): 66.9%; activity at 15 µM ([3]; read-out: PydTP, % control, 15.0 μM): 62%
CN(C)c1ncnc2c(N[C@@H]3O[C@H](CO)[C@@H](O)[C@H]3O)ncnc12 [Compound 27, 4-Dimethylamino-8-(β-D-ribofuranosylamino)pyrimido[5,4-d]pyrimidine] | 50.7 | 85.8 | 40581 | 10177 | 0 | 68.2 | 46.9 | – | – | – | – | – | – | – | – | – | – | –
